From patent US9493461B2, “Tetracyclic heterocycle compounds and methods of use thereof for the treatment of hepatitis C” (priority 2013, dated 2016) come the findings set out here.

One assay deals with HCV replicon genotype 1a. As to the kind of experiment: HCV replicon assay, genotype 1a (cell ELISA for replicon-encoded NS3/4A). The conditions noted are these: Hepatitis C virus, 96 h, read-out: 1a IC50 (nM), genotype 1a replicon cells, 96 hours incubation, NS3/4A ELISA readout, % of DMSO control. It counts as cell-based, hepatitis C virus (HCV). The method, then: Measurement of inhibition by compounds was performed using the HCV replicon system. Several different replicons encoding different HCV genotypes or mutations were used. In addition, potency measurements were made using different formats of the replicon assay, including different ways of measurements and different plating formats. See Jan M. Vrolijk et al., A replicons-based bioassay for the measurement of interferons in patients with chronic hepatitis C, 110 J. V[…] 201 (2003); Steven S. Carroll et al., Inhibition of Hepatitis C Virus RNA Replication by 2′-Modified Nucleoside Analogs, 278(14) J. BIOLOGICAL CHEMISTRY 11979 (2003). However, the underlying principles are common to all of these determinations, and are outlined below.
(§1) Stable neomycin phosphotransferase encoding replicons-harboring cell lines were used, so all cell lines were maintained under G418 selection prior to the assay. Potency was determined using a cell ELISA assay with an antibody to the replicons encoded NS3/4a protease. See Caterina Trozzi et al., In Vitro Selection and Characterization of Hepatitis C Virus Serine Protease Variants Resistant to an Active-Site Peptide Inhibitor, 77(6) J. Virol. 3669 (2003). To initiate an assay, replicon cells were plated in the presence of a dilution series of test compound in the absence of G418. Typically, the assays were performed in a 96-well plate formate for manual operation, or a 384-well plate format for automated assay. Replicon cells and compound were incubated for 96 hours. At the end of the assay, cells were washed free of media and compound, and the cells were then lysed. RNA was quantified indirectly through detection of replicon-encoded NS3/4A protein levels, through an ELISA-based assay with an antibody specific for NS3/4A. IC50 determinations were calculated as a percentage of a DMSO control by fitting the data to a four-parameter fit function and the data obtained is provided in the table below.
(§2) Data for selected compounds of the present invention was obtained for genotypes 1a and 1b using this method and is provided in the table below: […]
(In antiviral work, replicon cells carry a viral genome segment that copies itself.)

The subject of a further assay is HCV replicon genotype 1b. As to the kind of experiment: HCV replicon assay, genotype 1b (cell ELISA for replicon-encoded NS3/4A). The format is cell-based, hepatitis C virus (HCV). The conditions noted are these: Hepatitis C virus, 96 h, read-out: 1b IC50 (nM), genotype 1b replicon cells, 96 hours incubation, NS3/4A ELISA readout, % of DMSO control. Here is the method: The HCV NS5B inhibitory activity of the present compounds may be tested using assays known in the art. The HCV NS5B polymerase inhibitors described herein have activities in a genotype 1b replicon assay as described in the Examples. The assay is performed by incubating a replicon harboring cell-line in the presence of inhibitor for a set period of time and measuring the effect of the inhibitor on HCV replicon replication either directly by quantifying replicon RNA level, or indirectly by measuring enzymatic activity of a co-encoded reporter enzyme such as luciferase or β-lactamase. By performing a series of such measurements at different inhibitor concentrations, the effective inhibitory concentration of the inhibitor (EC50 or EC90) is determined See Jan M. Vrolijk et al., A replicons-based bioassay for the measurement of interferons in patients with chronic hepatitis C, 110 J. VIROLOGICAL METHODS 201 (2003). Such assays may also be run in an automated format for high through-put screening. See Paul Zuck et al., A cell-based β-lactamase reporter gene assay for the identification of inhibitors of hepatitis C virus replication, 334 ANALYTICAL BIOCHEMISTRY 344 (2004).
Measurement of inhibition by compounds was performed using the HCV replicon system. Several different replicons encoding different HCV genotypes or mutations were used. In addition, potency measurements were made using different formats of the replicon assay, including different ways of measurements and different plating formats. See Jan M. Vrolijk et al., A replicons-based bioassay for the measurement of interferons in patients with chronic hepatitis C, 110 J. VIROLOGICAL METHODS 201 (2003); Steven S. Carroll et al., Inhibition of Hepatitis C Virus RNA Replication by 2′-Modified Nucleoside Analogs, 278(14) J. BIOLOGICAL CHEMISTRY 11979 (2003). However, the underlying principles are common to all of these determinations, and are outlined below.
as §1, §2

Regarding `CNC(=O)c1c(-c2ccc(F)cc2)oc2cc(N(C)S(C)(=O)=O)c(-c3cc4c(cn3)nc(CN3CC(C)(C#N)C3)n3c5cccc(F)c5cc43)cc12` [Example 119], the IC50 in the assay with HCV replicon genotype 1a was 1.74 nM; in the assay with HCV replicon genotype 1b it was 3.59 nM.

Consider `CNC(=O)c1c(-c2ccc(F)cc2)oc2cc(N(C)S(C)(=O)=O)c(-c3ccc4nc(C)n5c6cccc(F)c6cc5c4n3)cc12` [Example 60, 5-(11-fluoro-6-methylpyrido[3′,2′:4,5]pyrimido[1,6-a]indol-2-yl)-2-(4-fluorophenyl)-N-methyl-6-(N-methylmethylsulfonamido)benzofuran-3-carboxamide], for which the IC50 in the assay with HCV replicon genotype 1a was 2.78 nM; in the assay with HCV replicon genotype 1b it was 2.77 nM.

For the compound `CNC(=O)c1c(-c2ccc(F)cc2)oc2cc(N(C)S(C)(=O)=O)c(-c3ccc4nc(CN5CC(F)(F)C5)n5c6cccc(C#N)c6cc5c4n3)cc12` [Example 124], the IC50 stood at 1.89 nM in the assay with HCV replicon genotype 1a and 1.76 nM with HCV replicon genotype 1b.

As for `CNC(=O)c1c(-c2ccc(F)cc2)oc2cc(N(C)S(C)(=O)=O)c(-c3ccc4nc(C(C)N5CC(F)C5)n5c6cccc(F)c6cc5c4n3)cc12` (single isomer, unassigned) [Example 39, (R or S)-5-(11-fluoro-6-(1-(3-fluoroazetidin-1-yl)ethyl)pyrido[3′,2′:4,5]pyrimido[1,6-a]indol-2-yl)-2-(4-fluorophenyl)-N-methyl-6-(N-methylmethylsulfonamido)benzofuran-3-carboxamide], the IC50 came out at 6.37 nM with HCV replicon genotype 1a and 6.08 nM in the assay with HCV replicon genotype 1b.

Consider `CNC(=O)c1c(-c2ccc(F)cc2F)oc2cc(N(C)S(C)(=O)=O)c(-c3ccc4nc(CN5CCC(F)(C#N)CC5)n5c6cccc(F)c6cc5c4n3)cc12` [Example 141], for which the IC50 in the assay with HCV replicon genotype 1a was 5.48 nM; in the assay on HCV replicon genotype 1b, 5.99 nM.

`CNC(=O)c1c(-c2ccc(F)cc2)oc2cc(N(C)S(C)(=O)=O)c(-c3ccc4nc(CN5CCOC(C(F)(F)F)C5)n5c6cccc(C#N)c6cc5c4n3)cc12` (stereo not drawn) [Example 129]: the IC50 in the assay with HCV replicon genotype 1a came out at 5.68 nM; in the assay with HCV replicon genotype 1b it was 6.95 nM.

On to `CNC(=O)c1c(-c2ccc(F)cc2)oc2cc(N(C)S(C)(=O)=O)c(-c3ccc4c(n3)-c3cc5c(F)cccc5n3CN4C)cc12` [Example 67, 5-(11-fluoro-5-methyl-5,6-dihydropyrido[3′,2′:4,5]pyrimido[1,6-a]indol-2-yl)-2-(4-fluorophenyl)-N-methyl-6-(N-methylmethylsulfonamido)benzofuran-3-carboxamide], for which the IC50 is 1.56 nM with HCV replicon genotype 1a and 2.72 nM with HCV replicon genotype 1b.

In the case of `CNC(=O)c1c(-c2ccc(F)cc2)oc2cc(N(C)S(C)(=O)=O)c(-c3cnc4c(c3)-c3cc5c(F)cccc5n3CN4)cc12` [Example 57], the IC50 in the assay with HCV replicon genotype 1a was 2.66 nM; in the assay with HCV replicon genotype 1b, 3.11 nM.

As for `CCOP(=O)(Cc1nc2ccc(-c3cc4c(C(=O)NC)c(-c5ccc(F)cc5)oc4cc3N(C)S(C)(=O)=O)nc2c2cc3c(F)cccc3n12)OCC` [Example 49, diethyl ((11-fluoro-2-(2-(4-fluorophenyl)-3-(methylcarbamoyl)-6-(N-methylmethylsulfonamido)benzofuran-5-yl)pyrido[3′,2′:4,5]pyrimido[1,6-a]indol-6-yl)methyl)phosphonate], the IC50 with HCV replicon genotype 1a came to 2.78 nM; in the assay with HCV replicon genotype 1b it was 4.88 nM.

In the case of `CNC(=O)c1c2cc(-c3ccc4ncn5c6cccc(F)c6cc5c4n3)c(N(C)S(C)(=O)=O)cc2nn1-c1ccc(F)cc1` [Example 15, 2-(4-fluorophenyl)-5-(11-fluoropyrido[3′,2′:4,5]pyrimido[1,6-a]indol-2-yl)-N-methyl-6-(N-methylmethylsulfonamido)-2H-indazole-3-carboxamide], the values for the IC50 in the assay on HCV replicon genotype 1a and in the assay on HCV replicon genotype 1b were 3.04 nM and 5.27 nM, respectively.

Turning to `CNC(=O)c1c(-c2ccc(F)cc2F)oc2cc(N(C)S(C)(=O)=O)c(-c3ccc4nc(CN5CC[C@H](F)C5)n5c6cccc(F)c6cc5c4n3)cc12` [Example 45], the IC50 in the assay with HCV replicon genotype 1a is 4.43 nM; in the assay with HCV replicon genotype 1b, 4.29 nM.

For the compound `CNC(=O)c1c(-c2ccc(F)cc2)oc2cc(N(C)S(C)(=O)=O)c(-c3cc4c(cn3)nc(CS(C)(=O)=O)n3c5cccc(F)c5cc43)cc12` [Example 24], the figures for the IC50 with HCV replicon genotype 1a and in the assay with HCV replicon genotype 1b were 2.73 nM and 1.9 nM, respectively.

As for `CNC(=O)c1c(-c2ccc(F)cc2F)oc2cc(N(C)S(C)(=O)=O)c(-c3ccc4nc(CC5CC6(CNC(=O)C6)C5)n5c6cccc(F)c6cc5c4n3)cc12` (stereo not drawn) [Example 137], the IC50 in the assay with HCV replicon genotype 1a was 6.67 nM; with HCV replicon genotype 1b, 5.04 nM.

Turning to `CNC(=O)c1c(C(=O)N2CC(F)(F)C2)oc2cc(N(C)S(C)(=O)=O)c(-c3ccc4ncn5c6cccc(F)c6cc5c4n3)cc12` [Example 51], the IC50 in the assay on HCV replicon genotype 1a amounted to 39.1 nM; in the assay with HCV replicon genotype 1b, 32 nM.

Turning to `CNC(=O)c1c(-c2ccc(F)cc2)oc2cc(N(C)S(C)(=O)=O)c(-c3ccc4c(n3)-c3cc5c(F)cccc5n3C(CC(=O)O)N4)cc12` (stereo not drawn) [Example 72, 2-(11-fluoro-2-(2-(4-fluorophenyl)-3-(methylcarbamoyl)-6-(N-methylmethylsulfonamido)benzofuran-5-yl)-5,6-dihydropyrido[3′,2′:4,5]pyrimido[1,6-a]indol-6-yl)acetic acid], the figures for the IC50 with HCV replicon genotype 1a and in the assay with HCV replicon genotype 1b were 22.8 nM and 15.6 nM, respectively.

Consider `CNC(=O)c1c(-c2ccc(F)cc2)oc2cc(N(C)S(C)(=O)=O)c(-c3ccc4[nH]c(=O)n5c6ccc(F)cc6cc5c4n3)cc12` [Example 21, 5-(10-fluoro-6-oxo-5,6-dihydropyrido[3′,2′:4,5]pyrimido[1,6-a]indol-2-yl)-2-(4-fluorophenyl)-N-methyl-6-(N-methylmethylsulfonamido)benzofuran-3-carboxamide], for which the IC50 was found to be 7.61 nM in the assay with HCV replicon genotype 1a and 8.74 nM with HCV replicon genotype 1b.

Turning to `CNC(=O)c1c(-c2ccc(F)cc2)oc2cc(N(C)S(C)(=O)=O)c(-c3ccc4nc(CN5CC[C@@H](OC)C5)n5c6cccc(F)c6cc5c4n3)cc12` [Example 100], the IC50 in the assay with HCV replicon genotype 1a is 2.6 nM; in the assay with HCV replicon genotype 1b it was 4.46 nM.

For `CNC(=O)c1c(-c2ccc(F)cc2)oc2cc(N(C)S(C)(=O)=O)c(-c3ccc4nc(CN5CC(S(C)(=O)=O)C5)n5c6cccc(F)c6cc5c4n3)cc12` [Example 107], the values for the IC50 with HCV replicon genotype 1a and in the assay with HCV replicon genotype 1b were 3.33 nM and 3.04 nM, respectively.

With `CNC(=O)c1c(-c2ccc(F)cc2)oc2cc(N(C)S(C)(=O)=O)c(-c3ccc4nc(CC5CC[C@@H](OC)C5)n5c6cccc(C#N)c6cc5c4n3)cc12` (stereo partly drawn) [Example 133], the IC50 in the assay on HCV replicon genotype 1a was 2.98 nM; in the assay with HCV replicon genotype 1b it was 3.56 nM.

With `CNC(=O)c1c(-c2ccc(F)cc2)oc2cc(N(C)S(C)(=O)=O)c(-c3ccc4ncn5c6ccc(F)cc6cc5c4n3)cc12` [Example 20, 2-(4-fluorophenyl)-5-(10-fluoropyrido[3′,2′:4,5]pyrimido[1,6-a]indol-2-yl)-N-methyl-6-(N-methylmethylsulfonamido)benzofuran-3-carboxamide], the IC50 came to 1.59 nM in the assay with HCV replicon genotype 1a and 3.33 nM in the assay with HCV replicon genotype 1b.

As for `CNC(=O)c1c(-c2ccc(F)cc2)oc2cc(N(C)S(C)(=O)=O)c(-c3ccc4c(c3)-c3cc5ccccc5n3CN4S(C)(=O)=O)cc12` [Example 42, 2-(4-fluorophenyl)-N-methyl-6-(N-methylmethylsulfonamido)-5-(5-(methylsulfonyl)-5,6-dihydroindolo[1,2-c]quinazolin-2-yl)benzofuran-3-carboxamide], the IC50 stood at 17.2 nM with HCV replicon genotype 1a and 13.1 nM in the assay with HCV replicon genotype 1b.
